From patent US20170073659A1, “NOVEL LYSYL TRNA SYNTHETASE FRAGMENT AND MICROVESICLES COMPRISING SAME” (Medicinal Bioconvergence Research Center, priority 2014, published 2017)
Residues, ends and D or L forms follow the SMILES beside them. *: point of attachment. Cbz = O=C(OCc1ccccc1)*; CH2F = FC*

Legend:
KRS and syntenin-1 [1] = experiment: KRS-syntenin-1 interaction by immunoprecipitation and western blot; assay type: cell-based; settings: for binding of KRS variant with syntenin-1 compared with WT: myc-tagged variant transfected into cells, immunoprecipitation and western blot
Protocol: For immunoprecipitation, the cells were lysed at 4° C. in 50 mM HEPES (pH 7.4) buffer containing 150 mM NaCl, 0.5% NP-40, 2 mM EDTA, 5% glycerol and protease inhibiting agent (Calbiochem, San Diego, Calif., USA). Protein extracts were cultured together with protein-specific antibodies thereagainst with stirring at 4° C. In addition, protein G agarose was added. 4 hr after the addition of the protein G agarose, precipitate samples were obtained by centrifugation. The precipitate samples were washed three times for 5 min using cool lysis buffer. The precipitates were separated by SDS-PAGE.

HCT116 cells [2] = experiment: KRS secretion test (TCA precipitation, western blot); assay type: cell-based; settings: for secretion of KRS variant compared with WT: myc-tagged variant transfected into HCT116 cells, serum starvation 12 hr, anti-myc antibody; for KRS secretion after caspase inhibitor treatment: HCT116 cells, serum starvation media, inhibitor 14 uM, 12 hr, anti-KRS antibody
Protocol: HCT116 cells were incubated in RPMI media containing 10% FBS (Hyclone), and were grown to 60% confluency on 60-mm dish. The cells were washed twice with PBS, incubated in serum-free RPMI media, and treated with 10 ng/ml TNF-α for 12 hr. The supernatant of the cell culture liquid was cautiously collected, followed by centrifugation at 500 g for 10 min. The supernatant thus obtained was again centrifuged at 10,000 g for 30 min, thereby removing membrane organelles. Then, 12% TCA was added to the supernatant, followed by culture at 4° C. for 12 hr, so the supernatant was subjected to precipitation treatment. After the precipitation treatment, the supernatant was centrifuged at 18,000 g for 15 min, and the upper part was then discarded and the remaining pellets were neutralized with 100 mM HEPES (pH 8.0), and then 5× sample buffer was added to perform separation using SDS-PAGE. The products separated by SDS-PAGE were western blotted using anti-KRS antibody.

HCT116 cells [3] = experiment: KRS exosome secretion (exosomes isolated at 100,000 g, western blot); assay type: cell-based; settings: for exosome secretion of KRS variant compared with WT: myc-tagged variant transfected into HCT116 cells, serum starvation 12 hr
Protocol: HCT116 cells were incubated for a predetermined period of time in each treatment condition (especially, serum-starvation condition), and then the media were separated and consecutively centrifuged. Centrifugation was conducted three times at 500 g (10 min), 10,000 g (30 min), and 100,000 g (90 min) to form microvesicle pellets. The amount of microvesicle proteins was determined by using Bradford assay.

HCT116 cells [4] = experiment: KRS cleavage in cells (GFP-KRS, western blot with anti-GFP antibody); assay type: cell-based
Protocol: The cells were lysed with 50 mM Tris-HCl (pH 7.4) buffer containing 150 mM NaCl, 10 mM NaF, 12 mM beta-glycerophosphate, 1 mM EDTA, 1% NP-40, 10% glycerol, and protease inhibiting agent. Then, the supernatant was dissolved in SDS sample buffer, followed by separation using SDS-PAGE. For immunoblotting of endogenous KRS, anti-KRS antibody was used. Antibodies against Hsp90, syntenin-1, GFP, myc, caspase-3, -6, -8, -9, while syntenin-1 were purchased from Santa Cruz, and antibodies against alix were purchased from Cell Signaling. The anti-KRS antibody was manufactured by ordinary procedures in which KRS protein (Genbank Accession No. NP_005539.1) represented by SEQ ID NO: 2 was injected into New Zealand white rabbits to induce immune response and their antibodies were obtained.

RAW264.7 cells [5] = experiment: TNF-alpha secretion ELISA assay; assay type: cell-based; settings: RAW 264.7 cells; 100 nM KRS proteins or KRS exosomes 0.05, 0.5, 5 ug
Protocol: RAW264.7 cells (2×10^4) were incubated in 24-well plate containing DMEM supplemented with 10% FBS and 1% antibiotic for 12 hr, and starved in serum starvation media for 2 hr. 100 nM KRS protein (WT, ▴N12 each) and KRS exosomes (0.05, 0.5, 5 ug) were added, followed by treatment for 6 hr. Thereafter, cell media were collected by centrifugation at 3,000 g for 5 min. TNF-alpha secreted from the cells was detected using the TNF-alpha ELISA kit (Pharmingen, BD Science) according to the manufacturer's protocol.

RAW264.7 cells [6] = experiment: Wound healing assay; assay type: cell-based; settings: RAW 264.7 monolayer; 100 nM KRS proteins or KRS exosomes 0.05, 0.5, 5 ug; 12 hr
Protocol: RAW264.7 cells were dispensed on the coverslip, and grown to >95% confluency. Subsequently, the RAW 264.7 monolayer was scratched to create wounds, and then the wounds were treated with 100 nM KRS proteins (WT, ▴N12) or KRS exosomes (0.05, 0.5, 5 ug) in their respective concentrations, followed by incubation for 12 hr. The cell morphology of cells was observed using microscopy.

Cytokine activity of KRS = settings: WT compared with N-terminus truncated KRS
RAW264.7 cells [7] = experiment: Luminex screening assays (bead-based multiplex kits); assay type: cell-based; settings: 100 nM KRS proteins or KRS exosomes 5 ug/ml; 12 hr
Protocol: RAW264.7 cells were incubated in 12-well plate using DMEM media containing 10% FBS and 1% antibiotic for 12 hr, and starved in serum starvation media for 2 hr. KRS proteins (WT, ▴N12 each) and KRS exosomes (5 ug) in different amounts were respectively added to the media. After 12 hr, conditioned media were collected, and spun down through centrifugation at 3,000 g for 10 min. For multiplex assay, premixed beads for TNF-alpha, mCRG-2, IL-6, mIL-lbeta, mIL-12, mIL-10, MMP9, INF-gamma, mMIP3a, and CXCL10 were purchased from R&D Science, and used according to the manufacturer's protocol. Each sample were analyzed by BioRad Bioplex 200 system and software.

KRS and syntenin-1 [8] = experiment: Bimolecular fluorescence complementation (BiFC) assay; assay type: cell-based; settings: KRS-VN173 and syntenin-1-VC155 transfected cells, serum starvation 4 hr
Protocol: KRS-VN173 plasmid and syntenin-1-VC155 plasmid were all transduced in HCT116 cells, and the cells were incubated in starvation condition or serum-free condition for 4 hr. The HCT116 cells were located on 9-mm coverslip, fixed using 4% paraformaldehyde, and washed shortly with cool PBS. The cells were incubated in 5% BSA blocking buffer for 1 hr, and DAPI stained for 10 min. The cells were washed six times with cool PBS five times for 5 min for each time, and then mounted on slide glass. Thereafter, the samples were observed using confocal laser scanning microscope A1 (Nikon).

With “▴c5: deletion mutant KRS with truncated C-terminus, 1-592 a.a of SEQ ID NO: 2” the “binding of KRS variant with syntenin-1 compared with WT” value (KRS and syntenin-1 [1]) was “significantly deteriorated”, the “secretion of KRS variant compared with WT” value (HCT116 cells [2]) was “less” and the “exosome secretion of KRS variant compared with WT” value (HCT116 cells [3]) was “reduced”.
In the case of `COC(=O)C[C@H](NC(=O)[C@H](C)NC(=O)[C@@H](NC(=O)OCc1ccccc1)C(C)C)C(=O)CF` [pan-caspase inhibitor, Z-VAD-FMK] (Cbz-Val-Ala-Asp(OMe)-CH2F), the “KRS cleavage after caspase inhibitor treatment” value (HCT116 cells [4]; GFP-KRS overexpressed cells, serum starvation media, Z-VAD-FMK 14 uM, 1 hr) is reported as “reduced” and the “KRS secretion after caspase inhibitor treatment” value (HCT116 cells [2]) is reported as “reduced”.
With “▴N12: KRS fragment 13-597 a.a., the peptide of SEQ ID NO: 1, first 12 N-terminal amino acids deleted” the “TNF-alpha secretion from macrophages” value (RAW264.7 cells [5]) was “increasing TNF-alpha secretion”, the “migration of macrophages (wound-healing assay)” value (RAW264.7 cells [6]) was “increased” and the cytokine activity (Cytokine activity of KRS) was “identical”. For the same compound, the “secretion of IL-6 from macrophages” value (RAW264.7 cells [7]) was “induced”, the “secretion of MMP9 from macrophages” value (RAW264.7 cells [7]) was “induced” and the “secretion of TNF-alpha from macrophages (luminex)” value (RAW264.7 cells [7]) was “induced”. The “secretion of mCRG-2 from macrophages” value (RAW264.7 cells [7]) was “induced”.
For Z-VAD-DQMD [caspase-3 inhibitor], the “KRS secretion after caspase inhibitor treatment” value (HCT116 cells [2]) was “only caspase-8 inhibitor inhibited KRS secretion”.
With “si-KRS: si-RNA against KRS from Invitrogen: GGGAAGACCCAUACCCACACAAGUU, AACUUGUGUGGGUAUGGGUCUUCCC (chemistry not given here)” the “KRS proteins existing in the exosome” value (HCT116 cells [3]; exosomes purified from si-RNA treated cells, 48 hr then serum starvation 12 hr, vs si-con) was “reduced”.
For “D12A mutant: variant in which Asp, 12th amino acid of KRS WT, is replaced with Ala; not cleaved by caspase-8”, the “binding of KRS variant with syntenin-1 compared with WT” value (KRS and syntenin-1 [1]) was “less”, the “BiFC fluorescence (KRS-syntenin binding)” value (KRS and syntenin-1 [8]) was “not observed” and the “cleavage of KRS variant compared with WT” value (HCT116 cells [4]; GFP-KRS variant overexpressed in HCT116 cells, serum starvation 1 hr) was “reduced”. The “secretion of KRS variant compared with WT” value (HCT116 cells [2]) was “reduced” and the “exosome secretion of KRS variant compared with WT” value (HCT116 cells [3]) was “significantly reduced”.
For Z-VAD-IETD [caspase-8 inhibitor], the “binding between KRS and syntenin increased by starvation” value (KRS and syntenin-1 [1]; serum starvation medium with or without caspase-8 inhibiting agent, IP of syntenin-1, anti-KRS western blot) was “reduced”, the “BiFC fluorescence (KRS-syntenin binding)” value (KRS and syntenin-1 [8]) was “not observed” and the “KRS secretion after caspase inhibitor treatment” value (HCT116 cells [2]) was “inhibited KRS secretion”.
For “KRS WT: full-length human lysyl tRNA synthetase (1-597), SEQ ID NO: 2”, the “TNF-alpha secretion from macrophages” value (RAW264.7 cells [5]) was “increasing TNF-alpha secretion”, the “migration of macrophages (wound-healing assay)” value (RAW264.7 cells [6]) was “increased” and the cytokine activity (Cytokine activity of KRS) was “identical”. The “secretion of IL-6 from macrophages” value (RAW264.7 cells [7]) was “induced”, the “secretion of MMP9 from macrophages” value (RAW264.7 cells [7]) was “induced” and the “secretion of TNF-alpha from macrophages (luminex)” value (RAW264.7 cells [7]) was “induced”. The “secretion of mCRG-2 from macrophages” value (RAW264.7 cells [7]) was “induced”.
For Z-VAD-VEID [caspase-6 inhibitor], the “KRS secretion after caspase inhibitor treatment” value (HCT116 cells [2]) was “only caspase-8 inhibitor inhibited KRS secretion”.
